In patent US20250092065A1, “2-(INDAZOL-5-YL)-6-(PIPERIDIN-4-YL)-1,7-NAPHTHYRIDINE DERIVATIVES AND RELATED COMPOUNDS AS MODULATORS FOR SPLICING NUCLEIC ACIDS AND FOR THE TREATMENT OF PROLIFERATIVE DISEASES” (REMIX THERAPEUTICS INC., priority 2022, published 2025):

Legend:
Target C = experiment: RT-qPCR canonical junction panel assay, Target C mRNA; format: cell-based; details: Table 4, read-out: Target C IC50 (decrease in CJ mRNA levels)
Procedure, shortened: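 IC50 is the concentration giving 50% CJ decrease, from a 4-parameter logistic fit of percent response; response derived from ΔΔCt against housekeeper and DMSO over a fixed ΔCt window, with canonical exon-junction qPCR in compound-treated K562 or A673 cells.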

HTT = experiment: HiBiT protein abundance assay, HTT (K562 HiBiT knock-in); format: cell-based, human; details: HiBiT knock-in K562 cells, 24 hours, top dose 10 μM
Procedure, shortened: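 Luminescence readout: Nano-Glo HiBiT lytic detection after 24 h compound exposure of K562 HiBiT knock-in cells, 10000 cells/well. Dosing 10-pt, 3-fold, top 10 μM final. % response vs untreated parental K562 and DMSO controls; 4PL fit, IC50 = concentration giving 50% protein abundance.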

IC50 (Target C): 1 to 10 µM
IC50 (HTT): 1 to 10 µM
SMILES: CNC1CCN(c2cc3c(Cl)cc(-c4cc5cn(C)nc5c(C)c4O)nc3cc2C)C1 (centres unmarked) [Compound 486, 5-{4-chloro-7-methyl-6-[3-(methylamino)pyrrolidin-1-yl]quinolin-2-yl}-2,7-dimethylindazol-6-ol]
